US6602881B2, “Anti-inflammatory uses of manzamines” (priority 1999, dated 2003)

Experiments:
Type in all cases: cell-based
[1] = test system: LPS activated BMΦ (rat microglia); assay: Assay for BMΦ thromboxane B2 (TXB2) generation (immunoassay), PMA-stimulated, LPS-activated BMΦ; conditions: PMA (1 μM)-stimulated TXB2 release from LPS (0.3 ng/ml, 17 h)-activated rat BMΦ, manzamine 20 min preincubation + 70 min
Method: (§1) Isolation and culture of rat BMΦ. Briefly to prepare primary BMΦ cultures, cerebral cortices from 1-2-day-old Sprague-Dawley rats (Harlan, Indianapolis, Ind.) were placed in cold DMEM+10% heat-inactivated FBS+120 U/ml P and 12 μg/ml S, meninges carefully removed, brain tissue minced and dissociated with trypsin-EDTA at 37° C. for 3-5 minutes. The mixed glial cell suspension was plated in either 75 or 162 cm^2 culture flasks with DMEM containing 10% heat-inactivated FBS+120 U/ml P and 12 μg/ml S and grown in a humidified 5% CO2 incubator at 37° C. On day 7 of culture, flasks were shaken (90 rpm, 20 min, 37° C.) and media exchanged. On day 14 and every 3-4 days thereafter, BMΦ were detached using an orbital shaker (200 rpm, 2 hours, 37° C., 5% CO2), then centrifuged (450×g, 25 min, 4° C.). The pellet containing BMΦ was resuspended gently with cold DMEM, cell number and viability assessed by trypan blue exclusion. Purified BMΦ obtained by our method averaged>than 95% viability. Microglia were characterized as previously described (Mayer et al., 1999, supra).
Assay for BMΦ thromboxane B2 (TXB2) generation. Following stimulation with PMA, TXB2 generation in the BMΦ culture supernatants was measured using immunoassays (Cayman Chemical, Ann Arbor, Mich.) as indicated by the manufacturer's protocol (Mayer, et al., 1999, supra).
(§2) To establish the effect of Manzamine A, B, C, D, E and F on BMΦ O2^−, TXB2, and LDH generation the following procedure was used:
(§3) (1) 2-5×10^5 BMΦ were seeded into each well of 24-well flat-bottom culture clusters.
(§4) (2) 1 ml of DMEM+10% heat-inactivated FBS+120 U/ml P and 12 μg/ml S were added.
(§5) (3) BMΦ were allowed to attach for 2 hours, at 37° C., 5% CO2, and monolayers then washed 3 times with 1 ml warm (37° C.) DMEM+10% heat-inactivated FBS+120 U/ml P and 12 μg/ml S were added.
(§6) (4) 1 ml of DMEM+10% heat-inactivated FBS+120 U/ml P and 12 μg/ml S were added.
(§7) (5) Then, LPS (0.3 ng/ml final concentration) was added to each well.
(§8) (6) BMΦ were then incubated for 17 hours in a humidified 5% CO2 incubator at 37° C.
(§9) (7) Thereafter, the media was removed from each tissue culture well and discarded.
(§10) (8) BMΦ monolayers were washed 3 times with 1 ml warm (37° C.) HBSS.
(§11) To study the effect of Manzamines A, B, C, D, E and F on PMA-stimulated release of O2^− and TXB2 from BMΦ activated with LPS as described in (A) we proceeded as follows.
(§12) (1) Add HBSS, Manzamines A, or B, or C, or D, or E, or F, DMSO and Triton X-100 1% to the tissue culture wells containing LPS-activated BMΦ, as shown in Table 1.
(§13) (2) Incubate the tissue culture plates for 20 minutes in a humidified 5% CO2 incubator at 37° C.
(§14) (3) Remove the tissue culture plates from the incubator and return to laminar flow hood.
(§15) (4) Incubate tissue culture plates for an additional 70 minutes in CO2 incubator at 37° C.
(§16) (6) Once (5) is completed use the same BMΦ supernates to determine both LDH and TXB2 as described above in Assay for BMΦ TXB2 generation and LDH assay.

[2] = test system: LPS activated BMΦ (rat microglia); assay: Assay for BMΦ O2− generation (SOD-inhibitable reduction of ferricytochrome C), PMA-stimulated, LPS-activated BMΦ; conditions: PMA (1 μM)-stimulated O2− release from LPS (0.3 ng/ml, 17 h)-activated rat BMΦ, manzamine 20 min preincubation + 70 min
Method: as §1
Assay for BMΦ O2^− generation. BMΦ O2^− generation was determined by the superoxide dismutase(SOD)-inhibitable reduction of ferricytochrome C(FCC) (Mayer et al., 1999, supra). Briefly, spontaneous O2^− release from unstimulated BMΦ was measured in the presence of FCC (50 μM) and HBSS with or without SOD (700 units). To determine PMA-stimulated O2^− release, BMΦ containing wells received FCC, HBSS and PMA [1 μM] with or without SOD which inhibited>95% of FCC reduction. All experimental treatments were run in triplicate and in a final volume of 1 ml. Changes in absorbance of BMΦ supernatants were measured at 550 nm using a Beckman DU-650 Spectrophotometer. Differences in the amount of reduced FCC in the presence or absence of SOD were used to determine BMΦ O2^− generation by employing the molecular extinction coefficient of 21.0×10^3 M^−1 cm^−1.
as §2, §3, §4, §5, §6, §7, §8, §9, §10, §11, §12, §13, §14, §15
(5) When incubation is complete, aspirate BMΦ supernates from each well (1 ml), and place in a 1.5 ml microcuvette. Proceed to reach absorbance as indicated above in Assay for BMΦ O2^− generation.

[3] = test system: LPS activated BMΦ (rat microglia); assay: LDH assay (lactate dehydrogenase release, BMΦ viability); conditions: LDH release (toxicity) from LPS-activated rat BMΦ, same supernates
Method: as §1
LDH assay. To assess BMΦ viability following incubation with vehicle (DMSO) or the manzamines, lactate dehydrogenase (LDH) release was determined spectrophotometrically as previously described (Mayer et al., 1999, supra).
as §2, §3, §4, §5, §6, §7, §8, §9, §10, §11, §12, §13, §14, §15, §16

Compound | IC50 ([1]; Microglia) | IC50 ([2]; Microglia) | IC50 ([3]; Microglia) | IC50 [1] | IC50 [2] | IC50 [3]
C1=C\CC[C@]23CN4CCCC/C=C\CC[C@@]5(OC5[C@@H](c5nccc6c5[nH]c5ccccc56)[C@@H]2CC4)[C@@H]3NCCCC/1 (some centres unmarked) [Manzamine B, manzamine B] | ~3 µM | ~5 µM | ~3 µM | – | – | –
C1=C\CCCCN(CCc2nccc3c2[nH]c2ccccc23)CCCC/1 [Manzamine C, manzamine C] | ~5 µM | ~5 µM | ~5 µM | – | – | –
O[C@]12C=C(c3nccc4c3[nH]c3ccccc34)[C@@H]3CCN(CCCC/C=C\CC1)C[C@@]31C[C@@H]3/C=C\CCCCN3[C@H]12 [Manzamine A, manzamine A] | – | – | – | < 0.1 µM | 0.1 µM | > 30 µM
O=C1CCCN2C(CC1)C[C@]13CN4CCCC/C=C\CC[C@](O)(C=C(c5nccc6c5[nH]c5ccccc56)[C@@H]1CC4)[C@H]23 (some centres unmarked) [Manzamine E, manzamine E] | – | > 10 µM | > 10 µM | – | – | –
O[C@]12C=C(C3NCCc4c3[nH]c3ccccc43)[C@@H]3CCN(CCCC/C=C\CC1)C[C@@]31CC3/C=C\CCCCN3[C@H]12 (some centres unmarked) [Manzamine D, manzamine D] | ~0.3 µM | ~0.5 µM | ~0.5 µM | – | – | –
O=C1CCCN2[C@@H](CC1)C[C@]13CN4CCCC/C=C\CC[C@](O)(C=C(c5nccc6c5[nH]c5c(O)cccc56)C1CC4)[C@H]23 (some centres unmarked) [Manzamine F, manzamine F] | > 10 µM | > 10 µM | > 10 µM | – | – | –
